Where “and” joins values, the source holds several entries; their conditions need not be identical. Identical values can stand only once. Entries after “also recorded” stand apart in the source; their conditions may differ. Like-named read-outs stand apart in the source and are kept apart here.
Key:
industrial cohorts = conditions: cited from earlier work
[1] = system: residential population of men and women; assay: Seveso Study, cancer incidence in residential population exposed to TCDD; type: in vivo, human
Text: (§1) In addition to published and unpublished epidemiology data from the NIOSH Report (Fingerhut et al. (1990)), additional NIOSH Life Table records (LT20406 (1990)), and the Steenland et al. article (1999), the Inventor relies on Bertazzi et al.'s (Epidemiol. 4, 398-406 (1993)) cancer incidence data presentation on a residential population of men and women exposed to the lowest levels of TCDD as a result of a chemical plant explosion near Seveso, Italy, and the Inventor's own analysis of cancer incidence and body burden data in the Operation Ranch Hand (ORH) airmen exposed to TCDD as a result of service in Southeast Asia during the Vietnam War. None of the NIOSH and Seveso papers cited above claim that TCDD acts as an anti-carcinogen. The Air Force Scientists charged with developing the ORH Study also fail to observe TCDD as an anti-carcinogen. Ketchum et al. Amer. J. Epidem. 149, 630-639 (1999).
(§2) The Seveso Study (Bertazzi et al. (1993)) is a report on cancer incidence and cancer incidence changes in the first ten years following the population's exposure to TCDD and other chemicals. Over the course of these ten years, one expects not to register the carcinogenic effects of any chemicals acting as cancer initiators and to include any effects attributable to TCDD discernible within ten years, like promotion or promotion blocking. The first ten years of the lifetime NIOSH Study offer the same advantage. Fingerhut et al. (1990).
For a limited number of narrow cancer classifications, Bertazzi et al. (1993) has provided cancer incidence data stratified in five year intervals both for publication and as a courtesy to the Inventor. Kayajanian, Ecotox. Environ. Safety 42, 103-109 (1999). Fingerhut et al. (1990) also published five year cancer occurrence observations for total cancers. […] This pattern of cancer incidence reduction in the second five year interval is what one would expect if TCDD acted as a promoter blocker of the enumerated individual cancer classifications and a sufficient number of other cancers to generate a significant total cancer incidence reduction.
The significant individual and total cancer reductions the Inventor noted from the Seveso data, whether stratified or not (Bertazzi et al. (1993)) are associated with median levels of 48 ppt TCDD. Bertazzi et al., Amer. J. Epidem. 153, 1031-1043 (2001). Measurement of TCDD levels include both men and women.

Sprague-Dawley rats [2] = conditions: cited from earlier work
[3] = system: Operation Ranch Hand (ORH) airmen; conditions: cited from earlier work
[4] = system: male workers in 12 chemical plants; conditions: most highly TCDD-exposed members of the NIOSH workforce (Steenland 1999); cited from earlier work
[5] = tritiated TCDD ingested in corn oil, volunteer; cited from earlier work
mouse skin = conditions: cited from earlier work
[6] = system: Operation Ranch Hand (ORH) airmen; assay: Operation Ranch Hand (ORH) cancer incidence and body burden analysis; type: in vivo, human
Text: as §1
The ORH cancer incidence data collected over 30 years has particular value, because one may compute the cancer incidence effects associated with military service in Southeast Asia in internal cohorts unexposed or virtually unexposed to TCDD and distinguish them from an internal cohort of airmen exposed to TCDD within a well calibrated body burden range.
Kayajanian, Ecotox. Environ. Safety 46, 103-109 (2000); and Kayajanian, Ecotox. Environ. Safety (In press, 2001).
Kayajanian (2000)(In press, 2001). One standout cancer reduction is associated with an even lower TCDD body burden level: prostate cancer in black veterans is highest at non detect TCDD levels of less than 1.25 ppt; it is reduced at body burdens between 1.25 and 4.0 ppt, and lowest above 4.00 ppt, The pattern of prostate cancer reduction in black men is significant. Kayajanian, (In press, 2001).

[7] = molecular target: T1, aryl hydrocarbon (Ah) receptor (Homo sapiens, UniProt P35869); conditions: cited from earlier work
T1 sequence (P35869 11-848): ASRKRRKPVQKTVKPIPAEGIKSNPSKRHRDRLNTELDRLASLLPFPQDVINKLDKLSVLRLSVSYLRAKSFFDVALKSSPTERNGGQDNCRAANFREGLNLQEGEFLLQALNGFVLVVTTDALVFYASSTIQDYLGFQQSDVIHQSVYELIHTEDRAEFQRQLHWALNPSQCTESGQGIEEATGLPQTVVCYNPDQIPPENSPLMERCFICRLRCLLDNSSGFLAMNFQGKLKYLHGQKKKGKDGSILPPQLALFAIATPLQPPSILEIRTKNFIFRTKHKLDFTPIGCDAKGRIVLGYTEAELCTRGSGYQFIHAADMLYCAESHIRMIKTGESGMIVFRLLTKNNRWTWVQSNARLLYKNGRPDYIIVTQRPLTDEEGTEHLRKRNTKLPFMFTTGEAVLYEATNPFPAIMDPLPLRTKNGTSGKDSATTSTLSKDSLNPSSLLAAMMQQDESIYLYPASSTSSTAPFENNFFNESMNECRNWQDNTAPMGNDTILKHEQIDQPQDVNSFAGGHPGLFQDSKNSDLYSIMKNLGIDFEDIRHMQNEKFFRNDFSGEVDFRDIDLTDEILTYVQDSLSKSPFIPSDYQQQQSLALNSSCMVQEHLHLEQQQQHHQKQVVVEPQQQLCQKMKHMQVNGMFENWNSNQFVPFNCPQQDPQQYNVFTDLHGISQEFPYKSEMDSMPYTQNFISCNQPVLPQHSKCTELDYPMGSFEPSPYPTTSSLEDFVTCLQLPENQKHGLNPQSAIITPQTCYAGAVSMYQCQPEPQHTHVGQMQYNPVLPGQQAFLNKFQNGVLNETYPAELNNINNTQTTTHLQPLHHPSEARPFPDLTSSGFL

[8] = system: male workers in 12 chemical plants; assay: NIOSH Study of chemical plant workers, cancer occurrence; type: in vivo, human
Text: In 1994, EPA sought to regulate TCDD as a “probable” human carcinogen, using a population of 5280 male workers in 12 chemical plants, each of whom was exposed to contaminant levels of TCDD and some mix of 1000 unidentified other chemicals. Fingerhut et al. (1990). Fingerhut compared the cancer incidence in the plant workers to that expected in a national reference, and EPA concluded all the cancer incidence increases noted by Fingerhut were caused by the TCDD exposure and none were caused by exposures to other chemicals. U.S. EPA (1994). EPA's Science Advisory Board rejected the Agency's TCDD cancer claims. U.S. EPA Science Advisory Board, Review of Draft Documents: A Second Look at Dioxin (1995).
as §2
One of the plants (Midland) in the NIOSH Report has workers who reproduce the signature of individual cancer reductions and increases the Inventor observed in Seveso low exposure men: reductions in lung, primary liver (measured in Midland as liver) and multiple myeloma, which collectively are significant; and increases in STS and NHL, which individually are significant. The Seveso signature pattern of cancer incidence changes is present even though workers in Midland and the other 11 chemical plants were exposed to confounding chemicals which might have masked or diminished the extent of pattern confirmation. LT20406 (1990). From Steenland et al. (1999), one can estimate the TCDD level associated with the Midland plant wotkers as 105 ppt above background, or between 105 and 115 ppt.
The specific and total cancer reductions noted in the NIOSH, Seveso, and ORH studies can be tied to specific dioxin body burden levels measured in serum. Reading Steenland et al. (1999) and Fingerhut et al. (1990) together, one can estimate a range from 3 to 10,000 ppt extra TCDD in serum in eight of the 12 NIOSH plante worker cohorts. […] Midland workers, who show the Seveso pattern of reductions of specific cancers, had 105 ppt TCDD above background, which is assumed to be 0 to 10 ppt.

Sprague-Dawley rats [9] = assay: Kociba lifetime rodent feeding study; type: in vivo, rat
Experimental: EPA has sought to regulate dioxin as a carcinogen on three occassions. […] Kociba et al., Toxicol. Appl. Pharmacol. 46, 279-303 (1978). […] Kociba et al. (1978); U.S. EPA (1985); and U.S. EPA (1994).
Kociba et al, (1978); U.S. EPA (1985 and 1994).
To develop the Invention further, cross species comparisons are performed when no second epidemiology report is available to test the effect of TCDD exposure on women. […] Kayajanian, Regul. Toxicol. Pharmacol. 26, 134-137 (1997).

[10] = system: residential population of men and women; conditions: cited from earlier work
[11] = low exposure cohorts, second five years compared to first five years

## Clc1cc2c(cc1Cl)Oc1cc(Cl)c(Cl)cc1O2 [TCDD, 2,3,7,8-tetrachlorodibenzo-para-dioxin]
Industrial cohorts; most highly TCDD-exposed German herbicide chemical plant workers (Flesch-Janys 1995)
  total cancer mortality: significant increase
Industrial cohorts; separate studies of different industrial cohorts (Zober 1990, Manz 1991)
  total cancers: total cancer increase
[1]; compared to the outside reference over the entire ten year period
  lung and multiple myeloma cancer incidence in men: significantly or notably reduced
[1]; low exposure adults (men plus women), second five years compared to first five years
  incidence of soft tissue sarcoma (STS) and non Hodgkins lymphoma (NHL): significantly increased
[1]; [11]
  corpus uteri cancer incidence in women: significant cancer incidence reduction
  primary liver cancer incidence in men: significant cancer incidence reduction
  total cancer incidence in women: significant cancer incidence reduction
[1]; lowest study exposure
  percentagewise cancer incidence reduction, men versus women: to a greater extent in men than in women
Sprague-Dawley rats [2]; body burden level 25,400 ppt (Safe citing Kociba)
  hepatocarcinogenicity: very hepatocarcinogenic
Sprague-Dawley rats [2]; high dose female Sprague-Dawley rats fed TCDD over a lifetime
  liver cancer incidence: significantly elevated
Sprague-Dawley rats [2]; high dose female, body burden level 25,400 ppt (Safe citing Kociba)
  mammary and uterine cancers: anti-carcinogenic
[3]
  mean TCDD level of airmen when they left Vietnam: 195.7 ppt
[4]
  total cancers: significant increase
[5]
  label retention: 87%
Mouse skin; TCDD administered simultaneously with or a day after the skin cancer initiation step
  artificially elevated skin cancer incidence: No reduction
Mouse skin; very high single dose administered one to five days prior to initiation, several mice strains
  artificially elevated skin cancer incidence: significantly reduces
[6]; all airmen, 50 ppt (mean body burden 50-100 ppt)
  total cancers other than skin: significant cancer incidence reductions; also recorded: significant non skin cancer reductions
[6]; body burdens above 4.00 ppt
  prostate cancer in black veterans: lowest
[6]; body burdens between 1.25 and 4.0 ppt
  prostate cancer in black veterans: reduced
[6]; non black airmen, 100 ppt (mean body burden 50-100 ppt)
  skin cancer incidence: significant cancer incidence reductions; also recorded: significant skin cancer reductions
[6]; non detect TCDD levels of less than 1.25 ppt
  prostate cancer in black veterans: highest
[6]; skin and total cancers other than skin
  mean TCDD body burden levels at which significant cancer incidence reductions are observed: 50-100 ppt
[7]
  binding to the aryl hydrocarbon (Ah) receptor: preferentially binds
[8]; Midland plant workers, collectively significant
  lung, primary liver (measured as liver) and multiple myeloma cancers: reductions
[8]; Midland plant workers, individually significant
  STS and NHL: increases
[8]; including background
  TCDD level associated with the Midland plant workers: 105-115 ppt
[8]; years 6-10 compared to years 1-5, Fingerhut Report
  incidence of total cancers in men: significantly less
Sprague-Dawley rats [9]; each sex, low and mid dose TCDD levels of 540 and 5100 ppt in liver tissue
  total cancers: significant reduction
Sprague-Dawley rats [9]; low dose female rats, p<0.01
  total cancers: significantly reduced
Sprague-Dawley rats [9]; low dose female rats, p<0.06
  uterine cancers: significantly reduced
Sprague-Dawley rats [9]; low dose, each sex, significant in the males
  liver cancer incidence: reduction
Sprague-Dawley rats [9]; lowest study exposure
  percentagewise cancer incidence reduction, male versus female rats: in male rats to a greater extent than in female rats
Sprague-Dawley rats [9]; male and female rats, TCDD body burdens of 540 and 5100 ppt
  cancers at multiple tissue sites and overall: reduction
[10]; Italian men from Seveso, pooled two highest exposed cohorts, over twenty years (Bertazzi 2001)
  total cancers: significant increase
[10]; men and women
  median TCDD level associated with significant individual and total cancer reductions: 48 ppt and 48.0 ppt

Source: US6444698B1, “Application of 2,3,7,8-tetrachlorodibenzo-para-dioxin (TCDD) as a promoter blocker of cancer” (priority 1998, dated 2002)
